# Assay results as given in patent US20070135515A1, “Method for producing sorbicillactone a” (priority 2004, published 2007).
# Columns and labels:
# [1] = tested on: L5178Y-mouse lymphoma cells (ATCC CRL 1722); assay: Apoptosis detection (Cell Death Detection ELISA plus); format: cell-based; settings: for MW ± SD (OD) / % of the control (negative): 4 hours incubation; for MW ± SD (OD): 405 nm; for % of the control (negative): negative control = 100%
# Protocol: Material: RPMI1640-medium, Hepes buffered, was obtained from Sigma-Aldrich (Taufkirchen, Germany), foetal calf serum (FCS) from Gibco (Karlsruhe, Germany), and Cell Death Detection ELISA plus from Roche (Mannheim, Germany, Cat. No. 1774425). Sorbicillactone A of the batch: 2208/2a was used.
# Incubation and preparation of the cells: The L5178Y-mouse lymphoma cells (ATCC CRL 1722)) were counted, and adjusted to a number of cells of 10^4 cells/mL. The sorbicillactone-A- and dihydrosorbicillactone-A-stock solution (10 mg/mL in DMSO) was diluted with medium (RPMI/Hepes with 10% FCS) to concentrations of 60, 20, and 6 μg/mL. In a 96-well-culture plate, 100 μl cell suspension (˜10^3 cells) were each pipetted to each of the 100 μl of the different dihydrosorbicillactone-A- and sorbicillactone-A-solutions. RPMI1640-medium without dihydrosorbicillactone and sorbicillactone A was used as a negative control. The final concentrations were 30, 10, and 3 μg/mL sorbicillactone A and dihydrosorbicillactone A. Four parallel settings of each sample were analysed. The cells were incubated for 4 hours at 37° C. After the incubation, the culture plate was centrifuged at […] (˜1200 rpm) for 10 min at room temperature. The supernatant was carefully pipetted off, and the cells were each overlayered with 200 μl lysis-buffer (Roche-Kit). Then, the cells were lysed for 30 min at room temperature. After the lysis, the culture plate was again centrifuged at 200×g (˜1200 rpm) for 10 min at room temperature.
# ELISA: Two strips with eight wells each were taken from the streptavidin-ELISA-plate of the Roche-kit. 20 μl of the supernatant of a cell-lysis (see above) were added into each well. In doing so, the samples with 30 or 10 μg/mL of sorbicillactone A and dihydrosorbicillactone A were loaded as 4-fold, and all other as duplicate determinations. In addition to these sample, a positive control (DNA-histone-complex) was loaded. Then, 80 μl of immune reagent were added into each well. This solution consisted of incubation buffer, anti-histone-biotin, and anti-DNA-peroxidase. The incubation buffer was used as a blank value. The ELISA-plate was incubated for 2 hours in a shaking incubator at room temperature. Them the supernatants were carefully removed, and the wells were each washed 3× with 250 μl of the incubation buffer. After the washing, 100 μl of ABTS-solution were added into each “well”. Subsequently, the cells were incubated for 30 min in the dark at room temperature. The measurement took place in a multiscan at an emission wavelength of 405 nm.
# [2] = tested on: L5178Y mouse lymphoma cells (ATCC CRL 1722); assay: Genotoxicity: Comet-Assay (alkaline electrophoresis, extent tail moment); format: cell-based; settings: 1, 3, and 10 μg/mL
# Protocol: Material: “Normal Melting Agarose” (NMA, Cat.-No. 840041) and “Low Melting Agarose” (LMA, Kat.-Nr. 870081) were obtained from Biozym (Hamburg, Germany), Triton x-100 from Fluka (Buchs S G, Schwitzerland), RPMI1640-medium, DMSO, and EDTA from Sigma-Aldrich (Taufkirchen, Germany), NaCl and Tris from Roth (Karlsruhe, Germany) and foetal calf serum (FCS) from Gibco (Karlsruhe, Germany). Sorbicillactone A of the batch: 2208/2a was used.
# Cells: The genotoxicity of sorbicillactone A was tested on L5178Y mouse lymphoma cells (ATCC CRL 1722). As described (Müller et al., 1979, Cancer Res. 39:1102-1107), the cells were cultured in RPMI1640-medium with 10 mM Hepes, which was supplemented with 10% foetal calf serum (FCS). As a concentration of the inoculum, 10^4 cells/mL was chosen. The cells were incubated with 1, 3, and 10 μg/mL sorbicillactone A for 4 and 24 hours. After the incubation, the cells were examined with the “Comet-Assay”.
# Alkaline electrophoresis: The object slides (Superfrost) were cleaned with acetone. 1.0-percent “Normal Melting Agarose” (NMA) in 1×PBS was cooked, and subsequently about 600 μl of agarose were applied onto an object slide. The object slides were shortly (˜5 min) dried at 50° C., and stored over night at room temperature. Then, the 0.7-percent “Low Melting Agarose” (LMA) was prepared in distilled water. The second layer on the object slides consisted of 200 μl LMA. […]
compound,measurement,setting,value
C/C=C/C=C/C(O)=C1/C(=O)C(C)=C(O)[C@@]2(C)OC(=O)[C@@](C)(NC(=O)/C=C/C(=O)O)[C@@H]12 [sorbicillactone A],MW ± SD (OD),[1]; 3 μg/mL,0.062 ± 0.004 OD
same,% of the control (negative),[1]; 3 μg/mL,91.2%
same,increase of apoptosis-cells,"[1]; 3 μg/mL, 4 hours of incubation",did not result in an increase of apoptosis-cells
same,MW ± SD (OD),[1]; 10 μg/mL,0.193 ± 0.010 OD
same,% of the control (negative),[1]; 10 μg/mL,283.8%
same,MW ± SD (OD),[1]; 30 μg/mL,0.219 ± 0.024 OD
same,% of the control (negative),[1]; 30 μg/mL,322.1%
same,induction of apoptosis,"[1]; 10 and 30 μg/mL, 4 hours of incubation",induces apoptosis
same,change of the extent tail moment (DNA-strand scissions),"[2]; 4 hours incubation, FIG. 2A",did not exhibit significant changes
same,change of the extent tail moment (DNA-strand scissions),"[2]; 24 hours incubation, FIG. 2B",no significant changes
